# Test results as given in patent publication US20240270762A1, “PENICILLIN-BINDING PROTEIN INHIBITORS” (priority 2021, published 2024).
# pEC50, pIC50: −log10 of the molar value.
# What was measured:
# [1] = test system: A. baumannii CDC-0036; assay: microbe, parasite or virus in culture; assay type: cell-based; details: Acinetobacter baumannii, CDC0036, read-out: MIC, A. baumannii CDC-0036
# [2] = test system: P. aeruginosa CDC-0095; assay: microbe, parasite or virus in culture; assay type: cell-based; details: Pseudomonas aeruginosa, CDC0095, read-out: Minimum inhibitory concentration, P. aeruginosa CDC-0095
# [3] = test system: B. humptydooensis ATCC BAA-2767; assay: microbe, parasite or virus in culture; assay type: cell-based; details: Burkholderia humptydooensis, ATCCBAA2767, read-out: Minimum inhibitory concentration (MIC), B. humptydooensis ATCC BAA-2767
# [4] = target: T1, PBP3 from Pseudomonas aeruginosa (PAO1) (Pseudomonas aeruginosa, UniProt G3XD46); assay: Bocillin-FL fluorescence polarization competition binding, P. aeruginosa PBP3; details: Binding affinity to P. aeruginosa PBP3; fluorescence polarization competition binding assay using Bocillin-FL; read-out: P. aeruginosa PBP3 Potency
# T1 construct: made in house
# T1 sequence (G3XD46 whole entry): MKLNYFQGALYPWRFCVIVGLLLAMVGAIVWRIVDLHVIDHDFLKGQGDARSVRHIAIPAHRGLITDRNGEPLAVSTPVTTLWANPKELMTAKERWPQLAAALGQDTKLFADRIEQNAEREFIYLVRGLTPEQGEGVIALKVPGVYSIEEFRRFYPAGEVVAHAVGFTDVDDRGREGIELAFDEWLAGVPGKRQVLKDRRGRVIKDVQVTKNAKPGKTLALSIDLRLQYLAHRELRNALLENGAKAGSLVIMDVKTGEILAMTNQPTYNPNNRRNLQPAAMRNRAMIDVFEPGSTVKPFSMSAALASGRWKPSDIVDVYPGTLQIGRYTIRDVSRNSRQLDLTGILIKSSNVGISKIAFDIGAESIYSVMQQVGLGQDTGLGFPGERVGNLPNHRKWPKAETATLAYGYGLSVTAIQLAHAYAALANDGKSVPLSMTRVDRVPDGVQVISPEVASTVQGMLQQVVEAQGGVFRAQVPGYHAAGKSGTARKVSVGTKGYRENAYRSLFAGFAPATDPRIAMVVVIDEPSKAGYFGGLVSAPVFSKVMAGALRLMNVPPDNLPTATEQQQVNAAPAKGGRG
# How it was run: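 Purified PBPs pre-incubated with inhibitor (E. coli PBP3 1.5 μM, 30 min; P. aeruginosa PBP3 0.75 μM, A. baumannii PBP1a 1 μM and PBP3 0.2 μM, 15 min), then Bocillin-FL 0.1 μM (0.05 μM for PBP1a) added; FP read up to 60 min. EC50 = concentration halving bound Bocillin-FL.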
# [5] = test system: A. baumannii ATCC 17978; assay: microbe, parasite or virus in culture; assay type: cell-based; details: Acinetobacter baumannii, ATCC17978, read-out: MIC, A. baumannii ATCC 17978
# [6] = test system: A. baumannii CDC-0045; assay: microbe, parasite or virus in culture; assay type: cell-based; details: Acinetobacter baumannii, CDC0045, read-out: MIC, A. baumannii CDC-0045
# [7] = target: A. baumannii PBP2 (Acinetobacter baumannii, UniProt D0C8Z9); assay: Bocillin-FL competition binding via gel filtration, A. baumannii PBP2
# Chain of A. baumannii PBP2 (D0C8Z9 whole entry): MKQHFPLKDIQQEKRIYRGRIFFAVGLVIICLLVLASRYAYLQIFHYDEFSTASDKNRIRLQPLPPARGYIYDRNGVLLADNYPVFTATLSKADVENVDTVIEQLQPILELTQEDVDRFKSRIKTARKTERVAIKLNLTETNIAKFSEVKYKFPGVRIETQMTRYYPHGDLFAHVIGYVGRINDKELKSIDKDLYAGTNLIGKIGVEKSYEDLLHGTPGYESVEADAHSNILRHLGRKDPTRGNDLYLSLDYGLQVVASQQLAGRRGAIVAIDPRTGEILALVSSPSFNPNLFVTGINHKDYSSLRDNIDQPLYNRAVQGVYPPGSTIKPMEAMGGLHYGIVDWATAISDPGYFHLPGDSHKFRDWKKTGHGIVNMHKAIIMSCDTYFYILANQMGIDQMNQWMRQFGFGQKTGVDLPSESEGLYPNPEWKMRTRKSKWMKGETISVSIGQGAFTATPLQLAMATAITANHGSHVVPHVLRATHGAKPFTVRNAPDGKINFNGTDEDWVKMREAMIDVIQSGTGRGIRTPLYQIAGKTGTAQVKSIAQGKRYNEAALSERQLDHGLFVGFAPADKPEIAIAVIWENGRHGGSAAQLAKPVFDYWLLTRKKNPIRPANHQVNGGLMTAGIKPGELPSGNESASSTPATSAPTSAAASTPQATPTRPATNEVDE
# How it was run: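 Enzyme was pre-incubated with rising inhibitor concentrations, then Bocillin-FL was added and incubated 15 minutes more. Bound probe was separated by gel filtration and fluorescence read. EC50 came from fitting fraction of PBP labelled versus inhibitor concentration to a Hill equation with ymin, ymax and n.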
# [8] = test system: A. baumannii 1258916; assay: microbe, parasite or virus in culture; assay type: cell-based, Acinetobacter baumannii; details: Acinetobacter baumannii, 1258916, read-out: MIC, A. baumannii 1258916
# [9] = test system: P. aeruginosa ATCC 35151; assay: microbe, parasite or virus in culture; assay type: cell-based; details: Pseudomonas aeruginosa, ATCC35151, read-out: Minimum inhibitory concentration, P. aeruginosa ATCC 35151
# [10] = test system: A. baumannii CDC-0033; assay: microbe, parasite or virus in culture; assay type: cell-based; details: Acinetobacter baumannii, CDC0033, read-out: MIC, A. baumannii CDC-0033
# [11] = test system: A. baumannii CDC-0083; assay: microbe, parasite or virus in culture; assay type: cell-based; details: Acinetobacter baumannii, CDC0083, read-out: MIC, A. baumannii CDC-0083
# [12] = test system: B. thailandensis ATCC 700388; assay: microbe, parasite or virus in culture; assay type: cell-based; details: Burkholderia thailandensis, ATCC700388, read-out: Minimum inhibitory concentration (MIC), B. thailandensis ATCC 700388
# [13] = test system: A. baumannii ATCC 19606; assay: microbe, parasite or virus in culture; assay type: cell-based; details: Acinetobacter baumannii, ATCC19606, read-out: MIC, A. baumannii ATCC 19606
SMILES,MIC [1] [µg/mL],MIC [2] [µg/mL],MIC [3] [µg/mL],pIC50 [4],MIC [5] [µg/mL],MIC [6] [µg/mL],pEC50 [7],MIC [8] [µg/mL],MIC [9] [µg/mL],MIC [10] [µg/mL],MIC [11] [µg/mL],MIC [12] [µg/mL],MIC [13] [µg/mL]
"O=C(O)c1c(F)ccc2c1OB(O)[C@@H](NC(=O)C(NC(=O)N1CCN(C3CCN(C(=O)Nc4cccc(O)c4)CC3)C(=O)C1=O)c1cc(F)c(O)c(O)c1Cl)C2 (stereo partly drawn) [Example 424, (3R)-3-(2-(2-chloro-5-fluoro-3,4-dihydroxyphenyl)-2-(4-(1-((3-hydroxyphenyl)carbamoyl)piperidin-4-yl)-2,3-dioxopiperazine-1-carboxamido)acetamido)-7-fluoro-2-hydroxy-3,4-dihydro-2H-benzo[e][1,2]oxaborinine-8-carboxylic acid]",< 1,< 1,2 to 4,> 5.00,< 1,< 1,> 5.00,< 1,< 1,< 1,2 to 4,< 1,< 1
"O=C(NCCCN1CCN(C(=O)NC(C(=O)N[C@H]2Cc3ccc(F)c(C(=O)O)c3OB2O)c2cc(F)c(O)c(O)c2Cl)C(=O)C1=O)c1cccc(O)c1F (stereo partly drawn) [Example 406, (3R)-3-(2-(2-chloro-5-fluoro-3,4-dihydroxyphenyl)-2-(4.-(3-(2-fluoro-3-hydroxybenzamido)propyl)-2,3-dioxopiperazine-1-carboxamido)acetamido)-7-fluoro-2-hydroxy-3,4-dihydro-2H-benzo[e][1,2]oxaborinine-8-carboxylic acid]",2 to 4,< 1,8 to 16,> 5.00,< 1,< 1,4.30 to 5.00,2 to 4,< 1,2 to 4,< 1,2 to 4,< 1
"O=C(NCCCN1CCN(C(=O)NC(C(=O)N[C@H]2Cc3ccc(F)c(C(=O)O)c3OB2O)c2cc(F)c(O)c(O)c2Cl)C(=O)C1=O)c1cc(O)ccc1Cl (stereo partly drawn) [Example 408, (3R)-3-(2-(2-chloro-5-fluoro-3,4-dihydroxyphenyl)-2-(4-(3-(2-chloro-5-hydroxybenzamido)propyl)-2,3-dioxopiperazine-1-carboxamido)acetamido)-7-fluoro-2-hydroxy-3,4-dihydro-2H-benzo[e][1,2]oxaborinine-8-carboxylic acid]",8 to 16,< 1,8 to 16,> 5.00,< 1,< 1,> 5.00,2 to 4,< 1,2 to 4,< 1,2 to 4,< 1
"O=C(NCCCN1CCN(C(=O)NC(C(=O)N[C@H]2Cc3ccc(F)c(C(=O)O)c3OB2O)c2cc(F)c(O)c(O)c2Cl)C(=O)C1=O)c1ccc(O)c(Cl)c1F (stereo partly drawn) [Example 419, (3R)-3-(2-(4-(3-(3-chloro-2-fluoro-4-hydroxybenzamido)propyl)-2,3-dioxopiperazine-1-carboxamido)-2-(2-chloro-5-fluoro-3,4-dihydroxyphenyl)acetamido)-7-fluoro-2-hydroxy-3,4-dihydro-2H-benzo[e][1,2]oxaborinine-8-carboxylic acid]",2 to 4,2 to 4,2 to 4,> 5.00,< 1,2 to 4,> 5.00,2 to 4,< 1,8 to 16,> 128,2 to 4,< 1
